The text below walks through data of article PMC10525445, “Antitrypanosomal Activity of 1,2,3-Triazole-Based Hybrids Evaluated Using In Vitro Preclinical Translational Models” (Biology, 2023).

In data set [1] the test system is intracellular amastigote forms of T. cruzi (Dm28c-Luc). As to the kind of experiment: Activity against intracellular amastigotes in infected VERO cells (72 h). In kind it is cell-based, Trypanosoma cruzi. The note with it: for Intracellular Amastigotes SI: SI = CC50 of VERO cells/IC50 of intracellular amastigotes; for IC50 / IC90: Trypanosoma cruzi, infected VERO cells, 72 h, mean ± SD; for IC50: read-out: Trypanocidal Activity Intracellular Amastigotes IC50; for IC90: read-out: Trypanocidal Activity Intracellular Amastigotes IC90. On the procedure: (§1) A drug screen was carried out with Trypanosoma cruzi clone Dm28c genetically modified to express luciferase (Dm28c-luc), kindly provided by Dr. Cristina Henriques. The genetically modified T. cruzi clone Dm28c (Dm28c-Luc) has the firefly luciferase gene integrated into the genome, stably expressing the luminescent enzyme. The bioluminescent signal, proportional to the number of parasites, is produced by adding a D-luciferin substrate. Trypomastigotes were harvested from supernatants of VERO cell cultures, infected at a ratio of 10:1 parasite/host cells, 4 days post-infection (4 dpi). Parasites were used for phenotypic drug screening procedures. Luminescent parasites are a reliable and sensitive tool that allows precise quantification of parasite load. The use of genetically modified organisms was approved under license CQB 105/99.
Activity against intracellular amastigotes was determined in cultures of VERO cells infected by T. cruzi (24 h), as previously described. Briefly, infected cultures were treated for 72 h at 37 °C with different concentrations of triazole derivatives (0.04–100 µM). Then, the culture supernatant was removed, and the viability of the intracellular parasites was evaluated after adding luciferin (300 µg/mL) to the cell monolayer followed by reading using the microplate reader. Anti-T. cruzi activity (IC50 and IC90) and SI values were determined. All experimental assays were performed at least 3 times in duplicate.

In data set [2] the test system is T. cruzi (Dm28c-Luc)-infected VERO cells. Nature of the data set: Short-term washout assay (3 days treatment, 3 days without compound). In kind it is cell-based, Trypanosoma cruzi. To be noted: 100 µM. On the procedure: (§2) A washout assay was performed to evaluate the capacity of the promising candidates to eliminate all parasites. Thus, VERO cells, seeded in 96-well plates at a density of 1.5 × 10^4 cells/well, were infected with T. cruzi (Dm28c-Luc) at a 10:1 parasite–host cell ratio (24 h). Two treatment schedules were performed: 3 days with 30, 50, and 100 µM concentrations and 10 days with 30 and 60 times the IC50 concentrations. After treatment, the cultures were washed with PBS and kept for the same period in RPMI 1640 medium supplemented with 10% FBS without compound pressure. The culture medium was changed every 3 or 4 days during the time course, and the supernatant was harvested for luminescence reading after luciferin (300 µg/mL) addition. At the endpoint, the monolayers were also evaluated for parasite load. The luminescent signal was read using a Glomax reader. Bz (100 µM) and DMSO (≤1%) were used as positive and negative controls, respectively.

Data set [3] is described as follows: Cytotoxicity on VERO cell monolayers (CellTiter Glo, 72 h). In kind it is cell-based. The note with it: African green monkey, VERO cell monolayers, ATP level, read-out: Cytotoxicity VERO Cells CC50. On the procedure:
VERO cells (Rio de Janeiro Cell Bank code 0245) were cultivated in RPMI 1640 medium supplemented with 10% fetal bovine serum (FBS) at 37 °C in a humidified atmosphere of 5% CO2. Confluent monolayers were dissociated with trypsin-EDTA solution (0.025%), and isolated cells were seeded on culture plates or flasks, depending on the experimental assay. The VERO cell cultures were used in cytotoxicity and phenotypic screening assays and for obtaining culture-derived trypomastigotes. The toxic effect of the triazole series was evaluated on VERO cell monolayers. After seeding for 24 hours, VERO cells were treated for 72 h at 37 °C with the 1,2,3-triazole derivatives and Bz, the reference drug, with a range of concentration from 15.62 to 500 µM. Controls were performed with a non-toxic concentration of dimethyl sulfoxide (DMSO; ≤0.1%) used in the experimental assays. Cell viability was determined by measuring ATP level using a CellTiter Glo kit. The luminescence read was performed using a Glomax microplate reader (Promega Corporation, Madison, WI, EUA). The cytotoxicity concentration 50 (CC50), the drug concentration that reduces cell viability by 50%, was calculated using linear regression. […] Cultures were exposed for 72 h to compound concentrations up to 500 µM, following the protocol mentioned above. At least 3 independent assays were performed in duplicate.
In general terms: In ATP-based viability assays light output follows the ATP content of the culture.

The test system of data set [4] is T. cruzi (Dm28c-Luc)-infected VERO cells. As to the kind of experiment: Long-term washout assay (10 days treatment, 10 days without compound). In kind it is cell-based, Trypanosoma cruzi. The note with it: 10 days treatment (30 or 60 times IC50; Bz 100 µM) + 10 days without compound. On the procedure: as §2
The test system of data set [5] is VERO cells infected with Silvio X10/7. The arrangement: method as in PMID 30001347. The note with it: cited from earlier work.
For data set [6], the system named is trypomastigote forms of T. cruzi (Dm28c-Luc). Nature of the data set: Trypanocidal activity against trypomastigotes (luciferase luminescence, 24 h). In kind it is cell-based, Trypanosoma cruzi. The note with it: for IC90 / IC50: Trypanosoma cruzi, Dm28c-Luc, 24 h. On the procedure: as §1
All triazole analogs were analyzed for their biological activity against trypomastigote and intracellular amastigote forms of T. cruzi (Dm28c-Luc). Trypomastigotes (1.0 × 10^6 parasites/well) were incubated for 24 h at 37 °C with triazole derivatives and Bz at concentrations ranging from 0.04 to 100 µM. Luciferin (300 µg/mL), a luciferase substrate, was added to parasite suspensions to evaluate trypomastigotes viability. The luminescent signal was measured using a Glomax microplate reader. A maximal DMSO concentration (0.1%) was used as the negative control. The inhibitory concentration 50 (IC50) and 90 (IC90) against T. cruzi, which reduces the number of parasites by 50% and 90%, respectively, was calculated using linear regression. The selectivity index (SI), a ratio that measures the window between toxicity in mammalian cells and anti-T. cruzi activity (SI = CC50/IC50), was also determined.

[7] abbreviates: mean ± SD, read-out: Trypanocidal Activity Trypomastigotes IC50.

Read-outs that look alike come from different tables or passages of the source.

The term IC90 denotes the point of the concentration-response curve where the effect stands at 90%. For orientation: CC50 means the concentration giving 50% cytotoxicity. The melting point is the temperature, or range, at which the solid turns liquid.

Regarding `O=C(Cn1ccnc1[N+](=O)[O-])NCc1ccccc1` [Bz, benznidazole, reference compound], the “Intracellular Amastigotes SI” value in data set [1] is given as above 107. Also, the IC50 in data set [1] is 4.67 ± 0.22 µM; in data set [6] (setting [7]), 22.8 ± 4.12 µM; in data set [6] (read-out: pIC50 against trypomastigotes (converted)), 22.9 µM. Besides, the results for the 90% effect concentration (IC90) in data set [1] and in data set [6] (mean ± SD) were 21.7 ± 2.37 µM and above 100 µM, respectively. The “effect on parasite load / infection progression” value in data set [2] is “potentially inhibited the infection progression”. Besides, the CC50 at 72 h in data set [3] is above 500 µM. Moreover, the “infection reactivation / sterile cure” value in data set [4] is listed as “failed to induce a sterile cure”. Further, the relapse result in data set [5] (12.5 to 50 times EC50 for 8 days) is “did not prevent relapse”. Besides, in data set [5] (16 days of treatment with 25 to 50 times EC50, followed for 60 days), the recrudescence entry was “lack of recrudescence”.
For the compound `Cc1ccccc1-n1cc(C(C)(C)O)nn1` [Triazole 1a, 2-(1-(o-Tolyl)-1H-1,2,3-triazole-4-yl)propan-2-ol], the IC50 in data set [1] and in data set [6] (setting [7]) was above 100 µM in each case. Moreover, the CC50 at 72 h in data set [3] is above 500 µM. The 90% effect concentration (IC90) in data set [6] (mean ± SD) was above 100 µM.
For the compound `Clc1ccc(-n2cc(-c3ccccc3)nn2)cc1` [Triazole 1b, 1-(4-Chlorophenyl)-4-phenyl-1H-1,2,3-triazole], the IC50 in data set [1] and in data set [6] (setting [7]) was above 100 µM throughout. Further, the 50% cytotoxic concentration (CC50) at 72 h in data set [3] was above 500 µM. The concentration for an effect of 90% (IC90) in data set [6] (mean ± SD) is above 100 µM.
Consider `Brc1ccc(-n2cc(-c3ccccc3)nn2)cc1` [Triazole 1c, 1-(4-Bromophenyl)-4-phenyl-1H-1,2,3-triazole], for which the IC50 in data set [1] and in data set [6] (setting [7]) was above 100 µM throughout. Also, the 50% cytotoxic concentration (CC50) at 72 h in data set [3] was above 500 µM. The concentration for an effect of 90% (IC90) in data set [6] (mean ± SD) is above 100 µM.
For the compound `c1ccc(Cn2cc(-c3ccccc3)nn2)cc1` [Triazole 1e, 1-Benzyl-4-phenyl-1H-1,2,3-triazole], in data set [1], the “Intracellular Amastigotes SI” value is given as above 6 and the IC50 turned out to be 83.2 ± 2.27 µM. Moreover, the CC50 at 72 h in data set [3] was above 500 µM. In data set [6] (mean ± SD), this compound showed an IC90 above 100 µM. In addition, in data set [6] (setting [7]), the IC50 was above 100 µM.
`OC1(c2cn(-c3ccccc3)nn2)CCCCC1` [Triazole 1h, 1-(1-Phenyl-1H-1,2,3-triazole-4-yl)cyclohexan-1-ol]: the IC50 in data set [1] and in data set [6] (setting [7]) was above 100 µM each time. Further, the CC50 at 72 h in data set [3] is above 500 µM.
Take `O=[N+]([O-])c1ccc(-n2cc(C3(O)CCCCC3)nn2)cc1` [Triazole 1i, 1-(1-(4-Nitrophenyl)-1H-1,2,3-triazole-4-yl)cyclohexan-1-ol]: the IC50 in data set [1] and in data set [6] (setting [7]) was above 100 µM in each case. Also, the CC50 at 72 h in data set [3] was above 500 µM.
In the case of `COc1ccc(-n2cc(C3(O)CCCCC3)nn2)cc1` [Triazole 1j, 1-(1-(4-Methoxyphenyl)-1H-1,2,3-triazole-4-yl)cyclohexan-1-ol], the IC50 in data set [1] and in data set [6] (setting [7]) was above 100 µM throughout. In data set [3], the CC50 at 72 h is above 500 µM.
The compound `Cc1ccccc1-n1cc(C2(O)CCCCC2)nn1` [Triazole 1k, 1-(1-(o-Tolyl)-1H-1,2,3-triazole-4-yl)cyclohexan-1-ol] came in with a melting point of 201 to 203 °C. The IC50 in data set [1] was above 100 µM. Besides, the 50% cytotoxic concentration (CC50) at 72 h in data set [3] is above 500 µM. The IC50 in data set [6] (setting [7]) was above 100 µM.
On to `O=C(OCc1cn(-c2ccccc2Cl)nn1)c1ccccc1` [Triazole 1l, (1-(2-Chlorophenyl)-1H-1,2,3-triazole-4-yl)methyl benzoate], for which, in data set [1], the “Intracellular Amastigotes SI” value was 3.03, the IC50 turned out to be 77.9 ± 2 µM and the IC90 is above 100 µM. The half-maximal cytotoxic concentration (CC50) at 72 h in data set [3] turned out to be 236 ± 17.9 µM. Moreover, the “Trypomastigotes SI” value in data set [6] (SI = CC50 of VERO cells/IC50 of trypomastigotes) stood at 2.94. In data set [6] (mean ± SD), the 90% effect concentration (IC90) is above 100 µM. Besides, the IC50 in data set [6] (setting [7]) stood at 80.4 ± 3.56 µM.
Turning to `Cc1ccccc1-n1cc(COC(=O)c2ccccc2)nn1` [Triazole 1m, (1-(o-Tolyl)-1H-1,2,3-triazole-4-yl)methyl benzoate], the IC50 in data set [1] and in data set [6] (setting [7]) was above 100 µM in each case. Besides, in data set [3], the CC50 at 72 h is above 500 µM.
For the compound `COc1ccc(-n2cc(CO)nn2)cc1` [Triazole 1n, (1-(4-Methoxyphenyl)-1H-1,2,3-triazole-4-yl)methanol], the IC50 in data set [1] and in data set [6] (setting [7]) was above 100 µM each time. In addition, the 50% cytotoxic concentration (CC50) at 72 h in data set [3] was above 500 µM.
